Results from US8623400B2, “Drug-carrying contact lens and method for fabricating the same” (National Chiao Tung University, priority 2011, dated 2014).

Assay: Drug-release test of drug-carrying contact lenses
Assay type: physicochemical
From the text: The drug-release tests are respectively performed on the first encapsulation-type drug-carrying contact lens and the drug-soaking type contact lens of the present invention to understand the drug-release thereof.
In one embodiment, the encapsulation-type drug-carrying contact lens adopts a hydrophobic antibiotic—Azithromycin, which is an oral azalide group antibiotic that is a subgroup of macrolides, and which is a broad-spectrum antibiotic effective to Gram-positive bacteria, Gram-negative bacteria, anaerobic bacteria, Chlamydia, helicoids, etc. […] Such a phenomenon may be attributed to the fact: the higher the temperature, the higher the oscillation frequency of the drug molecules, and the greater the quantity of the drug molecules diffusing out. In the present invention, the drug-release amount can be quantitively controlled according to the application environment. Therefore, the present invention has a potential to realize a customized drug-carrying contact lens.
In one embodiment, the drug-soaking type drug-carrying contact lens adopts Vitamin B12, which is a hydrophilic drug and effective to pernicious anaemia, and which is a red crystalline powder likely to absorb humidity, easy to dissolve in water and alcohol, and slightly unstable in the environment of light, strong acid, and base. […] Such a phenomenon is attributed to the fact that the greater the concentration difference, the higher the driving force of drug molecule diffusion.

release quantity of Azithromycin with respect to temperature (encapsulation-type drug-carrying contact lens, FIG. 6)	release of Vitamin B12 versus drug-carrying contact lens free of drug carriers (drug-soaking type drug-carrying contact lens containing the drug carriers, FIG. 7(a))	Molecule	drug-release rate with respect to drug concentration (drug-soaking type drug-carrying contact lens, different concentrations of Vitamin B12, FIG. 7(b))
increases with the temperature	–	CC[C@H]1OC(=O)[C@H](C)[C@@H](O[C@H]2C[C@@](C)(OC)[C@@H](O)[C@H](C)O2)[C@H](C)[C@@H](O[C@@H]2O[C@H](C)C[C@H](N(C)C)[C@H]2O)[C@](C)(O)C[C@@H](C)CN(C)[C@H](C)[C@@H](O)[C@]1(C)O [Azithromycin]	–
–	more slowly	Vitamin B12	increases with the concentration of the drug molecules
